Laboratory results as given in publication PMC9105102, “Development and Biochemical Characterization of Self-Immolative Linker Containing GnRH-III-Drug Conjugates” (International Journal of Molecular Sciences, 2022).
Read-outs that look alike come from different tables or passages of the source.

What was measured:
[1] = test system: A2780 human ovarian cancer cells; test: cells; type: cell-based; conditions: Homo sapiens
Method: (§1) For cultivation of A2780 human ovarian and Panc-1 human pancreatic cancer cells, RPMI-1640 medium with 10% FBS, L-glutamine and 1% Penicillin-Streptomycin were used. Cells were cultured in appropriate plastic flasks at 37 °C (humidified atmosphere, 5% CO2/95% air).
(§2) A set-up of 96-well plates was used to study the in vitro antiproliferative activity. Therefore, 5 × 10^3 cells in 100 µL complete medium were seeded to each well. After 24 h, complete medium was removed and cells were treated with 200 µL bioconjugate solution in serum-free medium (concentration range 0.0032–50 µM, control wells were treated with serum-free medium). Medium was taken out after 6 h treatment (PTX conjugates) or 24 h (Dau conjugates), replaced by complete medium and incubation was continued. To determine the cell viability, medium was removed after 72 h and 100 µL resazurin solution [45] (10% Tox-8 in FBS-free medium) was added to each well, followed by additional incubation of 2–3 h. A Tecan infinite 200 pro microplate reader (Tecan Group Ltd., Zürich, Switzerland) was used for fluorescence detection (λEx = 560 and λEm = 590 nm). Experiments were performed at least twice, using three parallels per concentration. The cell viability (and IC50 values) was calculated with GraphPad Prism using a nonlinear regression (sigmoidal dose-response).

[2] = test system: Panc-1 human pancreatic cancer cells; test: cells; type: cell-based; conditions: for IC50: Homo sapiens; for activity on Panc-1 cells lower than on A2780: ratio Panc-1 vs A2780
Method: as §1, §2

[3] = target: T1, GnRH-R (membranes of human pituitary) (Homo sapiens, UniProt P30968); test: Radioligand competition assay, displacement of [125I]-GnRH-I-[6D-Trp] (triptorelin), human pituitary membranes; type: binding; conditions: for GnRH-R binding of the radiotracer affected: at concentrations up to 1 µM, unrelated peptides; for displacement of radio-labelled triptorelin from GnRH-Rs: human pituitary and human prostate cancer tissues, GnRH unrelated peptides
T1 construct: GnRH-Rs expressed on human pituitary and human prostate cancer cells; from tissue; host or cells: normal human pituitary (anterior lobe), autopsy; membrane homogenate
T1 sequence (P30968 1-328): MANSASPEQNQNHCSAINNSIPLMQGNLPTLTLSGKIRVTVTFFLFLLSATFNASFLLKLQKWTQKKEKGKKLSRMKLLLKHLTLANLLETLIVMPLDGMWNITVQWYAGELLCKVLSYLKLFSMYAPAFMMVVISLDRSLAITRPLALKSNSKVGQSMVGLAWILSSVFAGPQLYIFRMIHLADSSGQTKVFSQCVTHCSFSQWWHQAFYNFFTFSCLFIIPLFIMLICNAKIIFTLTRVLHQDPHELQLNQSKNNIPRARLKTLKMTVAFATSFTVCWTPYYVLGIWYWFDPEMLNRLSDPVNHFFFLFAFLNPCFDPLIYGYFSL
Method: A ligand competition assay with [^125I]-GnRH-I-[^6D-Trp] as radioligand was performed to examine the binding affinity of the GnRH-III-drug conjugates to GnRH-Rs expressed on human pituitary and human prostate cancer cells. Human prostate cancer cells were derived from patients at the time of initial surgical treatment, while tissue samples from normal human pituitary (anterior lobe) were obtained by autopsy. All subjects were informed and gave their consent for inclusion before they participated in the study. The preparation of the cell membranes was carried out according to the literature. The chloramines-T method was used to prepare radioiodinated GnRH-I agonist triptorelin which was purified by RP-HPLC [10, 38, 39, 47]. The displacement of [^125I]-GnRH-I-[^6D-Trp] was studied in an in vitro ligand competition assay to determine the binding affinities of the non-radio-labeled GnRH-III bioconjugates to GnRH-RI [10, 11, 38, 39]. Membrane homogenates containing […] protein were incubated in duplicate or triplicate with 60–80,000 cpm [^125I]-GnRH-I-[^6D-Trp] and rising concentration (1 pM—1 µM) of nonradioactive bioconjugates as competitors in a total volume of […] binding buffer. Protein concentration was determined by the method of Bradford using a Bio-Rad protein assay kit (Bio-Rad Laboratories, Hercules, CA, USA). The LIGAND-PC computerized curve-fitting program of Munson and Rodbard was used to determine the receptor binding characteristics and IC50 values.

## COc1cccc2c1C(=O)c1c(O)c3c(c(O)c1C2=O)C[C@@](O)(C(C)=O)C[C@@H]3O[C@H]1C[C@H](N)[C@H](O)[C@H](C)O1 [Dau, daunorubicin, reference compound]
[1]; A2780, read-out: A2780 IC50
  IC50: 210 ± 10 nM
[2]; PANC-1, read-out: Panc-1 IC50
  IC50: 2430 ± 580 nM
[2]
  activity on Panc-1 cells lower than on A2780: approximately 10 times

## CC(=O)O[C@H]1C(=O)[C@@]2(C)[C@H]([C@H](OC(=O)c3ccccc3)[C@]3(O)C[C@H](OC(=O)[C@H](O)[C@@H](NC(=O)c4ccccc4)c4ccccc4)C(C)=C1C3(C)C)[C@]1(OC(C)=O)CO[C@@H]1C[C@@H]2O [PTX, paclitaxel, reference compound]
[1]; A2780 cells, treatment 24 h (Dau conjugates) or 6 h (PTX compounds), viability at 72 h, mean ± SE of two to three determinations, read-out: A2780 IC50
  IC50: 20 ± 1 nM
[2]; Panc-1 cells, treatment 24 h (Dau conjugates) or 6 h (PTX compounds), viability at 72 h, mean ± SE of two to three determinations, read-out: Panc-1 IC50
  IC50: 170 ± 10 nM

## CCCC(=O)NCCCC[C@H](NC(=O)[C@H]1Cc2ccccc2CN1C(=O)[C@@H]1CCC(=O)N1)C(=O)N[C@@H](Cc1c[nH]cn1)C(=O)N[C@@H](CC(=O)O)C(=O)N[C@@H](Cc1c[nH]c2ccccc12)C(=O)N[C@@H](CCCCNC(=O)CCCC(=O)N[C@H](C(=O)N[C@@H](CCCNC(N)=O)C(=O)Nc1ccc(COC(=O)N[C@H]2C[C@H](O[C@H]3C[C@](O)(C(C)=O)Cc4c(O)c5c(c(O)c43)C(=O)c3c(OC)cccc3C5=O)O[C@@H](C)[C@H]2O)cc1)C(C)C)C(=O)N1CCC[C@H]1C(=O)NCC(N)=O [compound 11, GnRH-III-[2ΔHis-3D-Tic,8Lys(glutaryl-Val-Cit-PABC-Dau)]]
[2]
  activity on Panc-1 cells lower than on A2780: more than 20 times
[3]; Val-Cit vs Val-Ala
  receptor binding affinity of 11 relative to corresponding Val-Ala conjugate 13: twice as high

## CCCC(=O)NCCCC[C@H](NC(=O)[C@H]1Cc2ccccc2CN1C(=O)[C@@H]1CCC(=O)N1)C(=O)N[C@@H](Cc1c[nH]cn1)C(=O)N[C@@H](CC(=O)O)C(=O)N[C@@H](Cc1c[nH]c2ccccc12)C(=O)N[C@@H](CCCCNC(=O)CCCC(=O)N[C@H](C(=O)N[C@@H](C)C(=O)Nc1ccc(COC(=O)N[C@H]2C[C@H](O[C@H]3C[C@](O)(C(C)=O)Cc4c(O)c5c(c(O)c43)C(=O)c3c(OC)cccc3C5=O)O[C@@H](C)[C@H]2O)cc1)C(C)C)C(=O)N1CCC[C@H]1C(=O)NCC(N)=O [compound 13]
[2]
  activity on Panc-1 cells lower than on A2780: more than 20 times

## bombesin [reference compound]
[3]
  GnRH-R binding of the radiotracer affected: unable to affect
  displacement of radio-labelled triptorelin from GnRH-Rs: not able to displace

## somatostatin [reference compound]
[3]
  GnRH-R binding of the radiotracer affected: unable to affect
  displacement of radio-labelled triptorelin from GnRH-Rs: not able to displace
